Data as given in PubChem BioAssay (NCI).
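A five-concentration, 48-hour dose response in 96-well plates underlies each endpoint, interpolated linearly between surrounding concentrations. TGI: total growth inhibition.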

Assays:
Test in all cases: growth of human tumour cells (NCI), 48 h
PC-3 prostate = tested on: PC-3 prostate
SK-OV-3 ovarian = tested on: SK-OV-3 ovarian
DU-145 prostate = tested on: DU-145 prostate
LOX IMVI melanoma = tested on: LOX IMVI melanoma
786-0 renal = tested on: 786-0 renal
CAKI-1 renal = tested on: CAKI-1 renal
SK-MEL-2 melanoma = tested on: SK-MEL-2 melanoma
OVCAR-3 ovarian = tested on: OVCAR-3 ovarian
UACC-62 melanoma = tested on: UACC-62 melanoma
COLO 205 colon = tested on: COLO 205 colon
T-47D breast = tested on: T-47D breast
HCT-15 colon = tested on: HCT-15 colon
NCI/ADR-RES ovarian = tested on: NCI/ADR-RES ovarian
HT29 colon = tested on: HT29 colon
HS 578T breast = tested on: HS 578T breast
BT-549 breast = tested on: BT-549 breast
MDA-N = tested on: MDA-N
UO-31 renal = tested on: UO-31 renal
NCI-H23 lung = tested on: NCI-H23 lung
RXF 393 renal = tested on: RXF 393 renal

SMILES	TGI (PC-3 prostate) [µM]	TGI (SK-OV-3 ovarian) [µM]	TGI (DU-145 prostate) [µM]	TGI (LOX IMVI melanoma) [µM]	TGI (786-0 renal) [µM]	TGI (CAKI-1 renal) [µM]	TGI (SK-MEL-2 melanoma) [µM]	TGI (OVCAR-3 ovarian) [µM]	TGI (UACC-62 melanoma) [µM]	TGI (COLO 205 colon) [µM]	TGI (T-47D breast) [µM]	TGI (HCT-15 colon) [µM]	TGI (NCI/ADR-RES ovarian) [µM]	TGI (HT29 colon) [µM]	TGI (HS 578T breast) [µM]	TGI (BT-549 breast) [µM]	TGI (MDA-N) [µM]	TGI (UO-31 renal) [µM]	TGI (NCI-H23 lung) [µM]	TGI (RXF 393 renal) [µM]
COc1cc(C=C2C(C)=NN(c3cccc(Cl)c3)C23SCC(=O)N3c2nc3ccccc3s2)ccc1O (configuration not stated)	58.1	50.8	> 100	> 69	> 91.5	> 96.2	39.5	> 80.1	96.1	32.9	> 100	> 93.6	> 96.7	> 100	32.4	58.8	> 100	> 92.2	84.2	62.7
CCC1NC(=O)C1NC(=O)OC (configuration not stated)	> 100	> 100	> 100	> 100	> 100	> 100	> 100	> 100	> 100	> 100	> 100	> 100	> 100	> 100	> 100	> 100	> 100	> 100	> 100	> 100
CCOC(=O)C1=[N+]([O-])OC2=C(O)CCCC21 (configuration not stated)	> 100	> 100	> 100	> 100	> 100	> 100	> 100	> 100	> 100	> 100	> 100	> 100	> 100	> 100	> 100	> 100	> 100	> 100	> 100	> 100
CS(=O)(=O)N1CC(CCl)c2ccc([N+](=O)[O-])cc21 (configuration not stated)	> 100	> 100	> 100	> 100	> 100	> 100	> 100	> 100	> 100	> 100	> 100	> 100	> 100	> 100	> 100	> 100	> 100	> 100	> 100	> 100
O=[N+]([O-])C(C(Cl)=C(Cl)Cl)=C(N(Cc1ccccc1)Cc1ccccc1)N(Cc1ccccc1)Cc1ccccc1	> 100	> 100	> 100	> 100	> 100	> 100	98.3	> 100	> 100	> 100	> 100	> 100	> 100	> 100	> 100	> 100	> 100	> 100	> 100	> 100
CC(NNC(=O)c1ccncc1)c1ccc(F)cc1 (configuration not stated)	> 100	> 100	> 100	> 100	> 100	> 100	> 100	> 100	> 100	> 100	> 100	> 100	> 100	> 100	> 100	> 100	> 100	> 100	> 100	> 100
CC#CC#C/C=C1/O[C@]2(CCC(OC(C)=O)CO2)[C@@H]2O[C@H]12 (some centres not stated)	80.9	> 100	> 100	48.2	46.9	63.6	40.5	> 100	36.8	32.4	52.1	42.8	58.1	96.1	> 100	50.4	> 100	39	44.7	47.5
C=CC/C=C/Cc1csc(C(C)(C)C(O)C/C=C/C(=C)CCNC(=O)OC)n1 (configuration not stated)	> 100	> 100	> 100	> 100	> 100	> 100	> 100	> 100	> 100	> 100	> 100	> 100	> 100	> 100	> 100	> 100	> 100	> 100	> 100	> 100
O=C1C=C2C(=NC34CCCCC3C(c3ccccc3)C3=C(c5ccccc5CC3)N24)c2ccccc21 (configuration not stated)	> 10	> 10	> 10	> 10	> 10	> 10	> 10	> 10	> 10	> 10	> 10	> 10	> 10	> 10	> 10	> 10	> 10	–	> 10	> 10
COc1ccc(OCc2nc3cc(C(F)(F)F)ccc3nc2-c2ccccc2)cc1	> 100	> 100	> 100	> 100	> 100	> 100	> 100	> 100	> 100	> 100	> 100	> 100	> 100	> 100	> 100	> 100	> 100	> 100	> 100	> 100
N#CC12C(=O)N3C(=NC(c4ccccc4)NC3c3ccccc3)C1(C#N)C(c1ccccc1)NC1=C2CCC1 (configuration not stated)	> 100	> 100	> 100	> 100	> 100	> 100	> 100	> 100	> 100	> 100	> 100	> 100	> 100	> 100	> 100	> 100	> 100	> 100	> 100	> 100
Cc1ccc(C2=Nc3cccc4cccc(c34)N2)cc1	> 100	> 100	> 100	> 100	> 100	> 100	> 100	> 100	> 100	> 100	> 100	> 100	> 100	> 100	> 100	> 100	> 100	> 100	> 100	> 100
CC(=O)OCOC(=O)CN(CC(=O)OCOC(C)=O)Cc1cc2c(cc1OC(C)=O)Oc1cc(OC(C)=O)c(CN(CC(=O)OCOC(C)=O)CC(=O)OCOC(C)=O)cc1C21OC(=O)c2ccccc21	4.82	9.4	6.35	1.29	1.41	6.77	2.33	2.98	1.19	1.86	4.21	7.05	75	1.88	1.59	1.16	1.32	6.38	2.51	1.43
COc1cccc(N=Cc2cc3cc(Br)ccc3nc2Cl)c1	> 50	> 50	> 50	> 50	11.3	> 50	> 50	> 50	–	> 50	> 50	> 50	> 50	> 50	> 50	> 50	> 50	> 50	> 50	> 50
CCOC(=O)C1(C(=O)OCC)Nc2cccnc2N(C)N1	67.5	> 100	42.5	52.6	36	36.1	37	41.5	35.2	24.2	53.5	36.2	43.8	32.2	> 100	> 100	35.4	31.8	42.1	33.3
CN(CC1(CO)CCC1)c1cc(Cl)nc(N)n1	> 100	> 100	> 100	> 100	> 100	> 100	> 100	> 100	> 100	> 100	> 100	> 100	> 100	> 100	> 100	> 100	> 100	> 100	> 100	> 100
COc1ccc(/C=C2\C(=O)N(C3OC(COC(C)=O)C(OC(C)=O)C(OC(C)=O)C3OC(C)=O)c3ccccc3N=C2N)cc1 (configuration not stated)	83.3	> 100	87.6	89.4	37.5	> 100	66.9	65.1	45.8	34	40.8	> 100	83.9	38	> 100	71.6	26	> 100	59.1	62.2
O=c1c2nn3c(=O)n(-c4ccccc4)c(=O)c3nn2c(=O)n1-c1ccccc1	> 100	> 100	> 100	> 100	> 100	> 100	> 100	> 100	> 100	> 100	> 100	> 100	> 100	> 100	> 100	> 100	> 100	> 100	> 100	> 100
O=C(C1OC1c1ccc(O)cc1)C12CC3CC(CC(C3)C1)C2 (configuration not stated)	> 100	> 100	> 100	> 56.1	48.2	> 66.1	> 100	> 64.8	> 100	> 76.9	51.6	> 100	> 100	> 100	> 100	> 81.8	> 75	> 86.1	> 100	> 100
CC[C@H]1C=CCC[C@@]2(C[C@@H]3CC[C@@H]4[C@H](C(=O)OCCCCCCCCCCCCCCCC(=O)O)[C@]5(CCC[C@@H](C)O5)NC(=[N+]34)N2)O1	1.9	11.8	8	0.284	0.418	3.47	0.347	5.83	0.179	1.34	11.9	7.77	14.8	5.61	2.13	6.9	7.68	0.339	4.83	1.9
O=C(/C=C/c1csc(-c2ccccc2)n1)NCc1ccc(C(=O)NCCc2ccccc2)cc1	> 100	56.2	> 100	> 100	32.7	50.3	> 100	> 100	> 100	> 100	> 100	> 100	> 100	30.4	> 100	> 100	> 100	> 100	> 100	23.4
CSc1ncc2c(C#N)c3sc4ccccc4n3c(=O)c2n1	> 100	> 100	> 100	> 100	> 100	> 100	> 100	> 100	> 100	> 100	> 100	> 100	> 100	> 100	51.3	> 100	> 100	> 100	> 100	> 100
CC(=O)N1C(Nc2ccccn2)CCN1c1ccccc1 (configuration not stated)	> 10	> 10	> 10	> 10	> 10	> 10	> 10	> 10	–	> 10	> 10	> 10	> 10	> 10	> 10	> 10	> 10	> 10	> 10	> 10
